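Interpolation was linear, between the two tested concentrations surrounding the appropriate level; five concentrations were tested over 48 hours in 96-well plates. At the GI50, growth is halved.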 The source made the active and inactive calls. Rule as the data show it: active = GI50 up to about 1.1 µM and inactive = higher.
Tests used:
Experiment in all cases: NCI anticancer screen, dose series, 48 h
SNB-75 = test system: SNB-75
UACC-62 = test system: UACC-62
LOX IMVI = test system: LOX IMVI
T47D = test system: T47D
UACC-257 = test system: UACC-257
RXF 393 = test system: RXF 393
A549 = test system: A549
UO-31 = test system: UO-31
COLO 205 = test system: COLO 205
HCT-116 = test system: HCT-116
A498 = test system: A498
HOP-62 = test system: HOP-62
M14 = test system: M14
EKVX = test system: EKVX
MDA-MB-231 = test system: MDA-MB-231
SF-539 = test system: SF-539
ACHN = test system: ACHN
DU-145 = test system: DU-145
SK-MEL-2 = test system: SK-MEL-2

Measured: GI50

CCC(C)C(NC(=O)C(CCCC[N+](=N)N)NC(=O)C(CCCC[N+](=N)N)NC(=O)c1ccc(OC)cc1)C(=O)NC(CCCC[N+](=N)N)C(=O)N1CCCC1C(=O)NC(CCCCN)C(=O)NC(CC(C)C)C(N)=O (configuration not stated)
inactive: SNB-75 > 100 µM | UACC-62 > 100 µM | LOX IMVI > 100 µM | T47D > 100 µM | UACC-257 > 100 µM | RXF 393 > 100 µM | A549 > 100 µM | UO-31 > 100 µM | COLO 205 > 100 µM | HCT-116 > 100 µM | A498 > 100 µM | HOP-62 > 100 µM | M14 > 100 µM | EKVX > 100 µM | MDA-MB-231 > 100 µM | SF-539 > 100 µM | ACHN > 100 µM | DU-145 > 100 µM

C=C1N(S(=O)(=O)c2ccc(C)cc2)C(=O)OCC12CCCC2
inactive: SNB-75 14.1 µM | UACC-62 34.6 µM | LOX IMVI > 100 µM | T47D 27.2 µM | UACC-257 80.4 µM | RXF 393 > 100 µM | A549 > 100 µM | UO-31 84.3 µM | COLO 205 72.8 µM | HCT-116 55.3 µM | A498 > 100 µM | M14 > 100 µM | EKVX 55 µM | MDA-MB-231 > 100 µM | SF-539 > 100 µM | ACHN > 100 µM | DU-145 > 100 µM

CC(C)Nc1n[nH]c(=O)n1C(C)C
inactive: SNB-75 99.3 µM | UACC-62 > 100 µM | LOX IMVI > 100 µM | SK-MEL-2 > 100 µM | T47D > 100 µM | UACC-257 > 100 µM | A549 > 100 µM | UO-31 > 100 µM | COLO 205 > 100 µM | HCT-116 > 100 µM | A498 > 100 µM | HOP-62 > 100 µM | M14 > 100 µM | EKVX > 100 µM | MDA-MB-231 > 100 µM | SF-539 > 100 µM | ACHN > 100 µM | DU-145 > 100 µM

Oc1ccccc1/C=N/c1ccc(Oc2ccc(Cl)cc2)c(Cl)c1
inactive: SNB-75 21.1 µM | UACC-62 24.9 µM | LOX IMVI 15.7 µM | SK-MEL-2 13.6 µM | T47D 5.97 µM | UACC-257 28.6 µM | A549 20.6 µM | UO-31 11.1 µM | COLO 205 21.8 µM | HCT-116 16.7 µM | A498 11.5 µM | HOP-62 15.5 µM | M14 18.5 µM | EKVX 21.3 µM | MDA-MB-231 16.1 µM | SF-539 20.9 µM | ACHN 30.3 µM | DU-145 81.8 µM

CC(C)(C)CC(N)=O
inactive: SNB-75 > 100 µM | UACC-62 > 100 µM | LOX IMVI > 100 µM | SK-MEL-2 > 100 µM | T47D > 100 µM | UACC-257 > 100 µM | A549 > 100 µM | UO-31 > 100 µM | COLO 205 > 100 µM | HCT-116 > 100 µM | A498 > 100 µM | HOP-62 > 100 µM | M14 > 100 µM | EKVX > 100 µM | MDA-MB-231 > 100 µM | SF-539 > 100 µM | ACHN > 100 µM | DU-145 > 100 µM

C/C(=C/CC[C@]1(CO)CC[C@]2(C)[C@H](CC[C@@H]3[C@@]4(C)CC[C@H](OC5OC(CO)C(O)C(O)C5OC5OC(CO)C(O)C(O)C5O)C(C)(C)[C@@H]4CC[C@]32C)[C@H]1O)CO (some centres not stated)
inactive: SNB-75 > 100 µM | UACC-62 > 100 µM | LOX IMVI > 100 µM | T47D > 100 µM | UACC-257 > 100 µM | RXF 393 > 100 µM | A549 > 100 µM | UO-31 > 100 µM | COLO 205 > 100 µM | HCT-116 > 100 µM | A498 > 100 µM | HOP-62 > 100 µM | M14 > 100 µM | EKVX > 100 µM | MDA-MB-231 > 100 µM | SF-539 > 100 µM | ACHN > 100 µM | DU-145 > 100 µM

Source: ChEMBL document CHEMBL1201862, “PubChem BioAssay data set” (2004)
